Here are results for four molecules from publication PMC7277541, “Antimicrobial and Antifungal Activities of Terpene-Derived Palladium Complexes” (Antibiotics, 2020).

Values after ≈ are worked out from the molar mass of the structure shown.

Data set [1] has as its system C. neoformans var. grubii H99 ATCC 208821. Kind of data set: Antifungal MIC assay, C. neoformans. It is filed as cell-based, Cryptococcus neoformans. The following applies: YNB, 35 °C, 36 h, resazurin, growth inhibited ≥ 80%, range tested 0.25 to 32 μg/mL, n = 2. The method, then:
Screening against bacteria and yeasts for antimicrobial activity and toxicity against mammalian cells was performed in duplicate (n = 2). […] Becton Dickinson 242720) agar at 30 °C. A yeast suspension of 1 × 10^6 to 5 × 10^6 CFU/mL (as determined by OD530) was prepared from five colonies form the agar plates, and subsequently diluted with Yeast Nitrogen Base media (YNB; Becton Dickinson 233520), and added to each well of the compound containing plates (384-well plates, NBS; […] Plates were covered and incubated at 35 °C for 36 h without shaking. […] Fluconazole (Sigma Aldrich, F8929) was used as a positive inhibitor control on each plate for both strains.
Background: Resazurin is reduced to fluorescent resorufin, in cell work by metabolically active cells.

Data set [2] deals with human embryonic kidney cells (HEK293, ATCC CRL-1573). Kind of data set: Cytotoxicity assay (resazurin). It is filed as cell-based. Particulars: HEK293, 20 h incubation. The method, then: (§1) Screening against bacteria and yeasts for antimicrobial activity and toxicity against mammalian cells was performed in duplicate (n = 2). […] HEK293 cells were counted manually in a Neubauer hemocytometer and added to compound-containing plates (384-well plates, tissue culture treated (TC); Corning CLS3712) giving a final density of 5000 cells/well in a total volume of 50 μL, using Dulbecco's Modified Eagle Medium (DMEM; Life Technologies 11995-073) with 10% Fetal Bovine Serum (FBS; GE SH30084.03). […] Sigma R7017) and after further incubation for 3 h at 37 °C in 5% CO2. Media only was used as negative control and cells without inhibitors as positive growth control. CC50 (concentration at 50% cytotoxicity) values were calculated by curve fitting the inhibition values vs. log(concentration) using a sigmoidal dose-response function, with variable fitting values for bottom, top and slope. Tamoxifen (Sigma Aldrich, Australia T5648) was used as positive inhibitor control on each plate. Selectivity indices (SI) were calculated by dividing the CC50 value (μg/mL) by the MIC value (μg/mL) for a given bacterial or fungal strain.

Data set [3] concerns S. aureus (MRSA) ATCC 43300. The data set can be described thus: Antibacterial MIC assay, S. aureus (MRSA). Type of data set: cell-based, Staphylococcus aureus. The following applies: CAMHB, 18 h, growth inhibited by ≥ 80%, range tested 0.25 to 32 μg/mL, n = 2. The method, then:
Dry compounds were dissolved in dimethyl sulfoxide (DMSO), and serially diluted 2-fold to produce an 8-point dose response with DMSO/water and then added into microtiter plates with a final DMSO concentration of 0.5%, providing a concentration range of 0.25 to 32 μg/mL. Screening against bacteria and yeasts for antimicrobial activity and toxicity against mammalian cells was performed in duplicate (n = 2).
For the bacterial assays, each bacterial strain was cultured in Cation-Adjusted Mueller Hinton Broth (CAMHB; Bacto Laboratories 212322) at 37 °C overnight. Bacterial strains tested were methicillin resistant S. aureus (methicillin-resistant Staphylococcus aureus - MRSA) ATCC 43300, E. coli ATCC 25922, K. pneumoniae K6/ESBL ATCC 700603, P. aeruginosa ATCC 27853, A. baumannii ATCC 19606. A sample of each culture was then diluted 40-fold in fresh CAMHB and incubated at 37 °C for 1.5–3 h. The resultant mid-log phase cultures were diluted with CAMHB (CFU/mL measured by OD600), then added to each well of the compound-containing plates (384-well non-binding surface (NBS) plates; Corning CLS3640), giving a final cell density of 5 × 10^5 CFU/mL and a total volume of 50 μL. Plates were covered and incubated at 37 °C for 18 h without shaking. Inhibition of bacterial growth was determined by measuring absorbance at 600 nm (OD600), using media only as negative control and bacteria without inhibitors as positive control. MIC values were determined as the lowest concentration at which the growth was inhibited by ≥ 80% (equivalent to no visible growth by eye). Colistin sulfate (Sigma Aldrich, Castle Hill, Australia C4461) and vancomycin HCl (Sigma Aldrich, 861987) were used as positive inhibitor controls on each plate for Gram-negative and Gram-positive bacteria, respectively.

The subject of data set [4] is C. albicans ATCC 90028. The data set can be described thus: Antifungal MIC assay, C. albicans. Type of data set: cell-based, Candida albicans. The following applies: YNB, 35 °C, 36 h, growth inhibited ≥ 80%; range tested 0.25 to 32 μg/mL; n = 2. As to the method: (§2) All screened compounds were > 95% purity as determined by NMR. Dry compounds were dissolved in dimethyl sulfoxide (DMSO), and serially diluted 2-fold to produce an 8-point dose response with DMSO/water and then added into microtiter plates with a final DMSO concentration of 0.5%, providing a concentration range of 0.25 to 32 μg/mL. Screening against bacteria and yeasts for antimicrobial activity and toxicity against mammalian cells was performed in duplicate (n = 2).
For the fungal assays, yeast strains C. neoformans var. grubii H99 ATCC 208821 and C. albicans ATCC 90028 were cultured for 3 days on Yeast Extract-Peptone Dextrose (YPD; Becton Dickinson 242720) agar at 30 °C. A yeast suspension of 1 × 10^6 to 5 × 10^6 CFU/mL (as determined by OD530) was prepared from five colonies form the agar plates, and subsequently diluted with Yeast Nitrogen Base media (YNB; Becton Dickinson 233520), and added to each well of the compound containing plates (384-well plates, NBS; Corning CLS3640) giving a final cell density of 2.5 × 10^3 CFU/mL and a total volume of 50 μL. Plates were covered and incubated at 35 °C for 36 h without shaking. Growth inhibition of C. albicans was determined measuring absorbance at 630 nm (OD630), while the growth inhibition of C. neoformans was determined measuring the difference in absorbance between 600 and 570 nm (OD600-570), after the addition of resazurin (0.001% final concentration; Sigma R7017) and incubation at 35 °C for 2 h, using media only as negative control and fungi without inhibitors as positive control. MIC values were determined as the lowest concentration at which the growth was inhibited at ≥ 80% (equivalent to no visible growth by eye). Fluconazole (Sigma Aldrich, F8929) was used as a positive inhibitor control on each plate for both strains.

For data set [5], the system named is human red blood cells (HRBC). The data set can be described thus: Haemolysis assay. Type of data set: cell-based. Particulars: 1 h at 37 °C. The method, then:
as §2
Hemolytic activity was assessed against human red blood cells (HRBC), with data presented as HC10, corresponding to the concentration of the compound causing 10% hemolysis. Human whole blood (Australian Red Cross) was washed three times with 3 volumes of 0.9% NaCl and resuspended in a concentration of 0.5 × 10^8 cells/mL, determined by manual cell count in a Neubauer hemocytometer. Washed cells were added to compound containing plates (384-well polypropylene plates (PP); Corning 3657) for a final volume of 50 μL. The plate was shaken with incubation for 1 h at 37 °C. After incubation, the plates were centrifuged at 1000× g for 10 min to pellet cells and debris. Supernatant (25 μL) was then transferred to reading plates (384-well, polystyrene plated (PS), Corning CLS3680), with hemolysis determined by measuring the supernatant absorbance at […] (OD405), using cells without inhibitors as negative control and cells with 1% Triton X-100 (Sigma T8787) as positive control. HC10 and HC50 (concentration at 10% and 50% hemolysis, respectively) were calculated by curve fitting the inhibition values vs. log(concentration) using a sigmoidal dose-response function with variable fitting values for top, bottom and slope. Melittin (Sigma M2272) was used as positive hemolytic control on each plate. Human blood was sourced from the Australian Red Cross Blood Service. Selectivity indices (SI) were calculated by dividing the HC10 value (μg/mL) by the MIC value (μg/mL) for a given bacterial or fungal strain.

A short description of data set [6]: Cytotoxicity assay (resazurin). It is filed as cell-based, human. The following applies: human, HEK293 cells (ATCC CRL-1573), HEK293, 20 h incubation, read-out: CC50 (concentration of 50% cytotoxicity). The method, then:
as §1

Regarding `C[C@H](N=C1C[C@H]2C[C@H](C2(C)C)[C@@]1(C)O)c1cccc[c]1[Pd][Cl].C[C@H](N=C1C[C@H]2C[C@H](C2(C)C)[C@@]1(C)O)c1cccc[c]1[Pd][Cl]` [Compound 1], the “Minimum inhibitory concentration (MIC) C. neoformans ATCC 208821” value in data set [1] came to 0.5 mg/L. For the same molecule, the “CC50 (concentration of 50% cytotoxicity)” value in data set [2] worked out at 11.9 mg/L. Further, the “Minimum inhibitory concentration (MIC) S. aureus ATCC 43300” value in data set [3] worked out at 4 mg/L. Besides, the “Minimum inhibitory concentration (MIC) C. albicans ATCC 90028” value in data set [4] is 1 mg/L. Also, the “HC10 (concentration of 10% haemolysis)” value in data set [5] was 3.9 µg/mL.

Take `C[C@H](N[C@@H]1C[C@H]2C[C@H](C2(C)C)[C@@]1(C)O)c1cccc[c]1[Pd]([Cl])[P](c1ccccc1)(c1ccccc1)c1ccccc1` [Compound 5, (+)-trans-Chloro{(1R,2R,3R,5R)-3-((S)-1′-phenylethylamino)-2,6,6-trimethylbicyclo[3.1.1]heptane-2-ol-C,N}(triphenylphosphine)palladium(II)]: the “Minimum inhibitory concentration (MIC) C. neoformans ATCC 208821” value in data set [1] turned out to be 1 mg/L. Also, the “CC50 (concentration of 50% cytotoxicity)” value in data set [2] was determined as 2.9 mg/L. In data set [3], the “Minimum inhibitory concentration (MIC) S. aureus ATCC 43300” value turned out to be 16 mg/L. Also, the “Minimum inhibitory concentration (MIC) C. albicans ATCC 90028” value in data set [4] was 2 mg/L. For the same molecule, the “HC10 (concentration of 10% haemolysis)” value in data set [5] was determined as 5.6 µg/mL.

With `CC[C@H](C)[C@H](NC(=O)CN)C(=O)NCC(=O)N[C@@H](C)C(=O)N[C@H](C(=O)N[C@@H](CC(C)C)C(=O)N[C@@H](CCCCN)C(=O)N[C@H](C(=O)N[C@@H](CC(C)C)C(=O)N[C@H](C(=O)N[C@H](C(=O)NCC(=O)N[C@@H](CC(C)C)C(=O)N1CCC[C@H]1C(=O)N[C@@H](C)C(=O)N[C@@H](CC(C)C)C(=O)N[C@H](C(=O)N[C@@H](CO)C(=O)N[C@@H](Cc1c[nH]c2ccccc12)C(=O)N[C@H](C(=O)N[C@@H](CCCCN)C(=O)N[C@@H](CCCNC(=N)N)C(=O)N[C@@H](CCCCN)C(=O)N[C@@H](CCCNC(=N)N)C(=O)N[C@@H](CCC(N)=O)C(=O)N[C@@H](CCC(N)=O)C(N)=O)[C@@H](C)CC)[C@@H](C)CC)[C@@H](C)O)[C@@H](C)O)C(C)C)C(C)C` [melittin, Melittin, reference compound], the “HC10 (concentration of 10% haemolysis)” value in data set [5] is 2.7 µg/mL.

Take `CC/C(=C(\c1ccccc1)c1ccc(OCCN(C)C)cc1)c1ccccc1` [tamoxifen, Tamoxifen, reference compound]: in data set [6], the CC50 at 20 h is 9 mg/L (≈ 24.2 µM).
